Measurements from patent US11396503B2, “Sulfonyl substituted bicyclic compound which acts as ROR inhibitor” (CHIA TAI TIANQING PHARMACEUTICAL GROUP CO., LTD, priority 2017, dated 2022).

These molecules were tested against T1, hRORγt (Homo sapiens, UniProt P51449) (assay: Luciferase assay (reporter gene, recombinant plasmid hRORγt)). Conditions: CHO-S cells transfected with pM-hRORγt and pG5-luc; overnight culture with compound; ONE-Glo luciferase readout; read-out: RORgt EC50.
T1 construct: expressed in transfected cells; host or cells: CHO-S (Chinese hamster ovary cells, Invitrogen R80007), transiently transfected with pM-hRORγt and pG5-luc
T1 sequence (P51449 1-497 isoform P51449-2): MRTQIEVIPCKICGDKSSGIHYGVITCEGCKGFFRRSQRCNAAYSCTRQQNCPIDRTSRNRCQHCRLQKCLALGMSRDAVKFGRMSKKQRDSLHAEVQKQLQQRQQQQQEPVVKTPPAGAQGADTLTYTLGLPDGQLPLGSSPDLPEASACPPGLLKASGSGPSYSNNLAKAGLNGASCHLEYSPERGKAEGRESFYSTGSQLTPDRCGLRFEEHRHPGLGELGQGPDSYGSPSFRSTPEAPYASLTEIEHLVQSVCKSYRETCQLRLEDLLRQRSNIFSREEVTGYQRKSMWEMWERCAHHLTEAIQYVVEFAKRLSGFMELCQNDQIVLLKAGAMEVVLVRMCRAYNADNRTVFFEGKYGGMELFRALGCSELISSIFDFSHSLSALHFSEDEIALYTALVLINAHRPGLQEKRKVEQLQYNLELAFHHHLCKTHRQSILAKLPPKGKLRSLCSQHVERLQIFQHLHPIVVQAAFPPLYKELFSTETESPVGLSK
Assay type: cell-based
From the text: This assay method used luciferase as a reporter gene to detect the expression of cells transfected with a gene recombinant plasmid at gene transcription level, wherein the recombinant plasmid was constructed by the promoter of a target gene and a luciferase gene. The experiment was primarily related to the transfection of the recombinant plasmid hRORγt (“RORgt”).
I. Reagents and Materials:
1. Cells: Chinese hamster ovary cells (CHO—S, Invitrogen, Cat #R80007), suspension-cultured in CD-CHO culture medium containing 8 mM L-glutamine and 1×HT.
a) Luciferase reporter gene plasmid pG5-luc: reporter plasmid (Promega).
b) Target gene plasmid pM-hRORγt: human RORgamma.
4. Transfection reagent: TransIT-CHO transfection kit (Minis Bio Co.) containing Trans-It reagent and Mojo reagent (Minis, MIR2170).
7. Luciferase kit: (Promega ONE-Glo, 100 ml, Catalog #E6120): containing luciferase substrate (Coenzyme A, ATP and luciferin) and a reaction buffer.
II. Specific Experimental Steps
1. Cell seeding: 18 to 24 h before transfection, a 125 mL shake flask was charged with CHO—S cells having a concentration of 0.5×10^6 cells/mL to 0.6×10^6 cells/mL, and CD-CHO culture medium (the culture medium only contained L-glutamine and an HT supplement) was added thereto to a final volume of 18 mL. The shake flask was placed on a shaker, and the cells were passaged overnight under a condition of 120 rpm, 37° C. and 8% CO2.
2. Cell transfection: At this time, the cell concentration of the above-mentioned solution should be 1.2×10^6 cells/mL to 1.5×10^6 cells/mL. CD-CHO culture medium (containing L-glutamine and an HT supplement) was used for dilution until the cell concentration reached 1×10^6 cells/mL.
B. Preparation of transfection reagent (TransIT-CHO: Mojo: DNA complex), which was formulated immediately before transfection.
1. Trans-IT reagent was warmed to room temperature in advance and shaken to be uniformly mixed before use.
2. Preparation for DNA transfection: the following reagents were mixed in a 1.5 mL sterile centrifuge tube:
27 μg of luciferase reporter gene plasmid pG5-luc: 27 μL, 1 mg/mL solution,
0.75 μg of the expression plasmid of the target gene (pM-hRORγt, 7.5 μL, 0.1 mg/mL solution).
3. The following reagents were charged into a 15 mL sterile centrifuge tube:
83 μL of TransIT-CHO reagent
the DNA complex prepared in step 2
4. The mixture was mixed well and placed at room temperature for 5 min.
5. 13.9 μL of Mojo reagent was charged into a sterile centrifuge tube, mixed slightly, and placed at room temperature for 20 min to form a transfection complex.
1. A 125 mL shake flask was charged with the transfection complex prepared in step B dropwise while being shaken slowly.
2. The cells were cultured for 4 h in a shaker under a condition of 37° C. and 8% carbon dioxide.
3. After 4 h, the cells were transferred to a 50 mL sterile centrifuge tube, centrifuged at 1200 rpm for 4 min, and the supernatant was aspirated.
4. The cells were re-suspended in 6 mL of a freezing medium (CD-CHO, L-glutamine, HT supplement, and 10% DMSO), and the cell density should be 3×10^6 cells/ml at this time.
5. The mixture was dispensed into 12 tubes with 0.5 mL in each tube. The tubes were placed in a refrigerator at −80° C. to be slowly frozen overnight, and then were transferred into liquid nitrogen for long-term storage.
D. Luciferase activity assay (96-well flat plate)
1. The cells were thawed at 37° C.
2. The cells (1.5×10^6 cells/0.5 mL) were diluted with 2 mL of freshly formulated culture medium (CD-CHO, L-glutamine and an HT supplement) to a volume of 2.5 mL, and then were transferred to a 15 mL sterile centrifuge tube.
3. Cell counting: If the cells were completely viable, a concentration of 6×10^5 cells/mL should be achieved. […] If necessary, the cells were diluted with culture medium.
4. Cell seeding: 100 μl cells (4×10^4 cells) were added to each well.

EC50 [pM] | SMILES
15000 | CC1CCc2cc(C(F)(F)F)ccc2N1S(=O)(=O)c1ccc(OCC2CCOCC2)c(CO)c1 (stereo not shown)
11000 | CCc1ccc2c(c1)CCC(CC)N2S(=O)(=O)c1ccc(OCC2CCOCC2)c(CO)c1 (stereo not shown)
14900 | CC(C)c1ccc2c(c1)CCC(C)N2S(=O)(=O)c1ccc(OCC2CCOCC2)c(CO)c1 (stereo not shown)
17900 | CCCc1ccc2c(c1)CCC(C)N2S(=O)(=O)c1ccc(OCC2CCOCC2)c(CO)c1 (stereo not shown)
20700 | CC1CCc2cc(C3CC3)ccc2N1S(=O)(=O)c1ccc(OCC2CCOCC2)c(CO)c1 (stereo not shown)
8100 | CCc1ccc2c(c1)CCC(C1CCC1)N2S(=O)(=O)c1ccc(OCC2CCOCC2)c(CO)c1 (stereo not shown)
330000 | C[C@H]1CCc2ccc(C(F)(F)F)cc2N1S(=O)(=O)c1ccc(OCC2CCOCC2)c(CO)c1
15600 | CCC1CCc2cc(C(C)(F)F)ccc2N1S(=O)(=O)c1ccc(OCC2CCOCC2)c(CO)c1 (stereo not shown)
10000 | CC[C@@H]1CCc2cc(C(C)(F)F)ccc2N1S(=O)(=O)c1ccc(OCC2CCOCC2)c(CO)c1
23000 | CCc1ccc2c(c1)CCC(C(F)(F)F)N2S(=O)(=O)c1ccc(OCC2CCOCC2)c(CO)c1 (stereo not shown)
34900 | CCc1ccc2c(c1)CC[C@H](CC)N2S(=O)(=O)c1ccc(OCC2CCOCC2)c(CO)c1
201000 | CCc1ccc2c(c1)CCC(CC)N2S(=O)(=O)c1ccc(C(O)CC2CCOCC2)c(CO)c1 (stereo not shown)
223000 | CCc1ccc2c(c1)N(S(=O)(=O)c1ccc(OCC3CCOCC3)c(CO)c1)[C@@H](C)CC2
146000 | CCc1ccc2c(c1)CCC(CC)N2S(=O)(=O)c1ccc(OCC2CCS(=O)(=O)CC2)c(CO)c1 (stereo not shown)
6800 | CC[C@H]1CCc2cc(C(C)C)ccc2N1S(=O)(=O)c1ccc(OCC2CCOCC2)c(CO)c1
12400 | CCc1ccc2c(c1)CCC(C(C)C)N2S(=O)(=O)c1ccc(OCC2CCOCC2)c(CO)c1 (stereo not shown)
803000 | CCc1ccc2c(c1)C[C@@H](O)[C@H](C)N2S(=O)(=O)c1ccc(OCC2CCOCC2)c(CO)c1
96500 | CCc1cc2c(cc1F)N(S(=O)(=O)c1ccc(OCC3CCOCC3)c(CO)c1)[C@@H](C)CC2
1.86e+06 | CCc1ccc2c(c1)CCC(CC)N2S(=O)(=O)c1ccc(OCC2CCOCC2)c(S(C)(=O)=O)c1 (stereo not shown)
13600 | CCc1ccc2c(c1F)CCC(CC)N2S(=O)(=O)c1ccc(OCC2CCOCC2)c(CO)c1 (stereo not shown)

EC50 [pM] | SMILES
1.4e+06 | CCC1CCc2cc(C(C)(C)O)ccc2N1S(=O)(=O)c1ccc(OCC2CCOCC2)c(CO)c1 (stereo not shown)
3200 | CCc1ccc2c(c1)CC[C@@H](C1CC1)N2S(=O)(=O)c1ccc(OCC2CCOCC2)c(CO)c1
25000 | CCc1ccc2c(c1)CC[C@H](C)N2S(=O)(=O)c1ccc(OCC2CCOCC2)c(CO)c1
5200 | CC[C@@H]1CCc2cc(C3CCC3)ccc2N1S(=O)(=O)c1ccc(OCC2CCOCC2)c(CO)c1
23600 | CCc1ccc2c(c1)CCC(C)N2S(=O)(=O)c1ccc(OCC2CCOCC2)c(CO)c1 (stereo not shown)
181000 | C[C@H]1CCc2cc(C(C)(F)F)ccc2N1S(=O)(=O)c1ccc(OCC2CCOCC2)c(CO)c1
21000 | CCc1ccc2c(c1)CCC(CC(C)C)N2S(=O)(=O)c1ccc(OCC2CCOCC2)c(CO)c1 (stereo not shown)
31600 | CCc1ccc2c(c1)CC(CC)CN2S(=O)(=O)c1ccc(OCC2CCOCC2)c(CO)c1 (stereo not shown)
6600 | CC(C)c1ccc2c(c1)CCC(C1CC1)N2S(=O)(=O)c1ccc(OCC2CCOCC2)c(CO)c1 (stereo not shown)
36000 | CCc1ccc2c(c1)CC(C)CN2S(=O)(=O)c1ccc(OCC2CCOCC2)c(CO)c1 (stereo not shown)
7000 | CCc1ccc2c(c1)CCC(C1CC1)N2S(=O)(=O)c1ccc(OCC2CCOCC2)c(CO)c1 (stereo not shown)
12000 | C=C(C)c1ccc2c(c1)CCC(CC)N2S(=O)(=O)c1ccc(OCC2CCOCC2)c(CO)c1 (stereo not shown)
5400 | CC[C@@H]1CCc2cc(C(F)(F)F)ccc2N1S(=O)(=O)c1ccc(OCC2CCOCC2)c(CO)c1
35500 | C=Cc1ccc2c(c1)CCC(CC)N2S(=O)(=O)c1ccc(OCC2CCOCC2)c(CO)c1 (stereo not shown)
576000 | CCc1ccc2c(c1)CCC(CC)N2S(=O)(=O)c1ccc(OCC2CCOCC2)c(S(N)(=O)=O)c1 (stereo not shown)
151000 | CCc1cc(F)c2c(c1)CC[C@H](C)N2S(=O)(=O)c1ccc(OCC2CCOCC2)c(CO)c1
70200 | CCC1CCc2cc(C(C)(C)C)ccc2N1S(=O)(=O)c1ccc(OCC2CCOCC2)c(CO)c1 (stereo not shown)
5500 | CCC1CCc2cc(C3CCC3)ccc2N1S(=O)(=O)c1ccc(OCC2CCOCC2)c(CO)c1 (stereo not shown)
2.63e+06 | CCc1ccc2c(c1)CCN2S(=O)(=O)c1ccc(OCC2CCOCC2)c(CO)c1
655000 | CCc1ccc2c(c1)C(C)CCN2S(=O)(=O)c1ccc(OCC2CCOCC2)c(CO)c1 (stereo not shown)

EC50 [pM] | SMILES
858000 | CCc1ccc2c(c1)CCCN2S(=O)(=O)c1ccc(OCC2CCOCC2)c(CO)c1
23000 | CCC1CCc2cc(CC(F)(F)F)ccc2N1S(=O)(=O)c1ccc(OCC2CCOCC2)c(CO)c1 (stereo not shown)
1.61e+06 | CCc1ccc2c(c1)CC(C)N2S(=O)(=O)c1ccc(OCC2CCOCC2)c(CO)c1 (stereo not shown)
218000 | CCc1ccc2c(c1)CC[C@@H](C)N2S(=O)(=O)c1ccc(OCC2CCOCC2)c(CO)c1
310000 | CCc1ccc2c(c1)CCC(C)(C)N2S(=O)(=O)c1ccc(OCC2CCOCC2)c(CO)c1
18000 | Cc1cc(C)c2c(c1)CCC(C1CC1)N2S(=O)(=O)c1ccc(OCC2CCOCC2)c(CO)c1 (stereo not shown)
3.12e+06 | CCc1ccc2c(c1)CCC(CC)N2S(=O)(=O)c1ccc(C(CO)N2CCOCC2)c(CO)c1 (stereo not shown)
48000 | CC[C@@H]1CCc2cc(C(C)C)ccc2N1S(=O)(=O)c1ccc(OCC2CCOCC2)c(CO)c1
3500 | CCC1CCc2cc(C(C)C)ccc2N1S(=O)(=O)c1ccc(OCC2CCOCC2)c(CO)c1 (stereo not shown)
71000 | CC[C@H]1CCc2cc(C(F)(F)F)ccc2N1S(=O)(=O)c1ccc(OCC2CCOCC2)c(CO)c1
11500 | [2H]C([2H])(O)c1cc(S(=O)(=O)N2c3ccc(C(C)C)cc3CCC2CC)ccc1OCC1CCOCC1 (stereo not shown)
1.4e+06 | CCc1ccc2c(c1)C(C)CN2S(=O)(=O)c1ccc(OCC2CCOCC2)c(CO)c1 (stereo not shown)
595000 | CCc1ccc2c(c1)CCC(CC)N2S(=O)(=O)c1ccc(C(O)CN2CCOCC2)c(CO)c1 (stereo not shown)
21100 | CCC1CCc2cc(C(F)(F)F)ccc2N1S(=O)(=O)c1ccc(OCC2CCOCC2)c(CO)c1 (stereo not shown)
212000 | CCc1ccc2c(c1)CCC(CC)N2S(=O)(=O)c1ccc(OCC2CCOCC2)c(CO)n1 (stereo not shown)
4200 | CCc1ccc2c(c1)CC[C@@H](CC)N2S(=O)(=O)c1ccc(OCC2CCOCC2)c(CO)c1
316000 | C[C@H]1CCc2cc(CC(F)(F)F)ccc2N1S(=O)(=O)c1ccc(OCC2CCOCC2)c(CO)c1
689000 | CC1CCc2cc(C#N)ccc2N1S(=O)(=O)c1ccc(OCC2CCOCC2)c(CO)c1 (stereo not shown)
